Columns and labels:
Type in all cases: in vivo
[1] = test system: cat fleas; assay: whole plant or invertebrate; details: 1 ppm in bovine serum sucked through Parafilm at 37° C., dead fleas after 48 hours, 20 fleas per group, corrected by control group
Protocol: (§1) A test container wherein the living space of fleas was isolated from bovine serum by use of Parafilm™ (obtainable from Aldrich Chemical Co. Ltd.), which is usually used as an artificial skin, was prepared. A compound to be tested was added to the bovine serum in an amount sufficient for its concentration to be 1 ppm, and the fleas were allowed to suck the serum sample through the Parafilm™ at 37° C. Each group consisted of 20 fleas. […] By counting the dead fleas in a control group without a test compound, the mortality was corrected.

[2] = test system: cat fleas; assay: Test on insecticidal effect against cat fleas (Test Example 12, serum feeding through Parafilm); details: 1 ppm in bovine serum, 37° C., after 48 hours, corrected by control group
Protocol: as §1

[3] = test system: two-spotted spider mites; assay: Test on miticidal effect against two-spotted spider mites, cowpea leaf dip (Test Example 9); details: for The death rate of mites (%): cowpea leaf dip, 2 days after treatment; for Death rate of hatchlings (%) / Death rate of mite eggs (%): 7 days after treatment; for Death rate of mite eggs (%): unhatched eggs; for The egg of two-spotted spider mite (7 days after) dead: number of dead eggs of total 20
Protocol: The remainder of the test compound solution was removed and the treated leaf was allowed to stand in a Petri dish containing a sponge covered with a filter paper soaked in water. After the test compound solution on the leaf had dried, eggs of the mites were marked. The leaf was then allowed to stand at 25° C. on the Petri dish without a lid. Two days after treatment with the test compound, the death rate of mites (expressed as a percentage of the total number of mites) was determined. Seven to ten days after the treatment, the “death rate” of the mite eggs (expressed as the percentage of the total number of mite eggs which were unhatched) and the death rate of the hatchlings (expressed as the percentage of the total number of hatchlings which were killed) was estimated. The test was repeated at different concentrations of the test compound. “Untreated” in this test means the control test in which water was used instead of the test compound solution.

SMILES: CCC1OC2(CCC1C)CC1CC(CC=C(C)C(OC(=O)C3(c4ccc(N)cc4)CCCC3)C(C)C=CC=C3COC4C(O)C(C)=CC(C(=O)O1)C34O)O2 (stereo not drawn) [Example 1(b), 13-[1-(4-Aminophenyl)cyclopentanecarbonyloxy]-5-hydroxymilbemycin A4]
- Mortality (%) [1]: 95.0%

SMILES: CC1=CC2C(=O)OC3CC(CC=C(C)C(OC(=O)C4(c5ccc(NS(C)(=O)=O)cc5)CCCC4)C(C)C=CC=C4COC(C1O)C42O)OC1(CCC(C)C(C)O1)C3 (stereo not drawn) [Example 9, 13-[1-(4-Methanesulfonylaminophenyl)cyclopentanecarbonyloxy]-5-hydroxy-milbemycin A3]
- Mortality (%) [1]: 83.2%

SMILES: CC[C@H]1O[C@]2(CC[C@@H]1C)C[C@@H]1C[C@@H](C/C=C(\C)[C@H](OC(=O)C3(c4ccccc4)CCCC3)[C@@H](C)/C=C/C=C3\CO[C@@H]4[C@H](O)C(C)=C[C@@H](C(=O)O1)[C@]34O)O2 [Comparative Compound A, reference compound]
- mortality at 1 ppm ([2]; Ctenocephalides felis): 2.4%
- mortality at 1 ppm ([1]; Ctenocephalides felis): 2.4%

SMILES: CC[C@H]1O[C@]2(CC[C@@H]1C)C[C@@H]1C[C@@H](C/C=C(\C)[C@H](OC(=O)C3(c4ccc(NC(=O)COC)cc4)CCCC3)[C@@H](C)/C=C/C=C3\CO[C@@H]4[C@H](O)C(C)=C[C@@H](C(=O)O1)[C@]34O)O2 [Test Compound Solution]
- The death rate of mites (%) ([3]; 0.1 ppm): 98.5%
- two-spotted spider mite (2 days after) dead ([3]; 0.1 ppm, number of dead mites of total 65): 64
- two-spotted spider mite (2 days after) agony ([3]; 0.1 ppm, number of mites in agony of total 65): 1
- Death rate of hatchlings (%) ([3]; 1 ppm): 30%
- Death rate of mite eggs (%) ([3]; 1 ppm): 0%
- The death rate of mites (%) ([3]; 1 ppm): 100%
- The egg of two-spotted spider mite (7 days after) dead ([3]; 1 ppm): 0
- two-spotted spider mite (2 days after) dead ([3]; 1 ppm, number of dead mites of total 55): 55
- Death rate of hatchlings (%) ([3]; 10 ppm): 100%
- Death rate of mite eggs (%) ([3]; 10 ppm): 25%
- The death rate of mites (%) ([3]; 10 ppm): 100%
- The egg of two-spotted spider mite (7 days after) dead ([3]; 10 ppm): 5
- two-spotted spider mite (2 days after) dead ([3]; 10 ppm, number of dead mites of total 39): 39
- Death rate of hatchlings (%) ([3]; 100 ppm): 100%
- Death rate of mite eggs (%) ([3]; 100 ppm): 90%
- The death rate of mites (%) ([3]; 100 ppm): 100%
- The egg of two-spotted spider mite (7 days after) dead ([3]; 100 ppm): 18
- two-spotted spider mite (2 days after) dead ([3]; 100 ppm, number of dead mites of total 48): 48

SMILES: CCC1OC2(CCC1C)CC1CC(CC=C(C)C(OC(=O)C3(c4ccc(NC(C)=O)cc4)CCCC3)C(C)C=CC=C3COC4C(O)C(C)=CC(C(=O)O1)C34O)O2 (stereo not drawn) [Example 2, 13-[1-(4-Acetylaminophenyl)cyclopentanecarbonyloxy]-5-hydroxymilbemycin A4]
- Mortality (%) [1]: 95.0%

SMILES: CCC1OC2(CCC1C)CC1CC(CC=C(C)C(OC(=O)C3(c4ccc(NC(C)=O)cc4)CCC3)C(C)C=CC=C3COC4C(O)C(C)=CC(C(=O)O1)C34O)O2 (stereo not drawn) [Example 16, 13-[1-(4-Acetylaminophenyl)cyclobutanecarbonyloxy]-5-hydroxymilbemycin A4]
- Mortality (%) [2]: 92.9%

SMILES: CCC1OC2(CCC1C)CC1CC(CC=C(C)C(OC(=O)C3(c4ccc(NS(C)(=O)=O)cc4)CCC3)C(C)C=CC=C3COC4C(O)C(C)=CC(C(=O)O1)C34O)O2 (stereo not drawn) [Example 17, 13-[1-(4-Methanesulfonylaminophenyl)cyclobutanecarbonyloxy]-5-hydroxy-milbemycin A4]
- Mortality (%) [2]: 94.9%

SMILES: CCC1OC2(CCC1C)CC1CC(CC=C(C)C(OC(=O)C3(c4ccc(NC(=O)C(F)(F)F)cc4)CCC3)C(C)C=CC=C3COC4C(O)C(C)=CC(C(=O)O1)C34O)O2 (stereo not drawn) [Example 18, 13-[1-(4-Trifluoroacetylaminophenyl)cyclobutanecarbonyloxy]-5-hydroxy-milbemycin A4]
- Mortality (%) [2]: 91.5%

SMILES: CCC1OC2(CCC1C)CC1CC(CC=C(C)C(OC(=O)C3(c4ccc(NS(C)(=O)=O)cc4)CCCC3)C(C)C=CC=C3COC4C(O)C(C)=CC(C(=O)O1)C34O)O2 (stereo not drawn) [Example 4, 13-[1-(4-Methanesulfonylaminophenyl)cyclopentanecarbonyloxy]-5-hydroxy-milbemycin A4]
- Mortality (%) [1]: 100.0%

SMILES: CCC1OC2(CCC1C)CC1CC(CC=C(C)C(OC(=O)C3(c4ccc(NC(=O)CN(C)C(C)=O)cc4)CCCC3)C(C)C=CC=C3COC4C(O)C(C)=CC(C(=O)O1)C34O)O2 (stereo not drawn) [Example 6, 13-{1-[4-(N-Acetyl-N-methylglycylamino)phenyl]cyclopentanecarbonyloxy}-5-hydroxymilbemycin A4]
- Mortality (%) [1]: 79.5%

SMILES: COCC(=O)Nc1ccc(C2(C(=O)OC3C(C)=CCC4CC(CC5(CCC(C)C(C)O5)O4)OC(=O)C4C=C(C)C(O)C5OCC(=CC=CC3C)C45O)CCCC2)cc1 (stereo not drawn) [Example 8, 13-[1-(4-Methoxyacetylaminophenyl)cyclopentanecarbonyloxy]-5-hydroxy-milbemycin A3]
- Mortality (%) [1]: 87.6%

SMILES: CCC1OC2(CCC1C)CC1CC(CC=C(C)C(OC(=O)C3(c4ccc(NC(=O)CO)cc4)CCCC3)C(C)C=CC=C3COC4C(O)C(C)=CC(C(=O)O1)C34O)O2 (stereo not drawn) [Example 5, 13-[1-(4-Hydroxyacetylaminophenyl)cyclopentanecarbonyloxy]-5-hydroxy-milbemycin A4]
- Mortality (%) [1]: 74.4%

SMILES: CCC1OC2(CCC1C)CC1CC(CC=C(C)C(OC(=O)C3(c4ccc(NC(=O)CC#N)cc4)CCCC3)C(C)C=CC=C3COC4C(O)C(C)=CC(C(=O)O1)C34O)O2 (stereo not drawn) [Example 3, 13-[1-(4-Cyanoacetylaminophenyl)cyclopentanecarbonyloxy]-5-hydroxymilbemycin A4]
- Mortality (%) [1]: 81.4%

SMILES: C#CCCC(=O)Nc1ccc(C2(C(=O)OC3C(C)=CCC4CC(CC5(CCC(C)C(CC)O5)O4)OC(=O)C4C=C(C)C(O)C5OCC(=CC=CC3C)C45O)CCC2)cc1 (stereo not drawn) [Example 19, 13-[1-(4-Pentynoylaminophenyl)cyclobutanecarbonyloxy]-5-hydroxymilbemycin A4]
- Mortality (%) [2]: 90.7%

SMILES: CCC1OC2(CCC1C)CC1CC(CC=C(C)C(OC(=O)C3(c4ccc(NC(=O)COC)cc4)CCC3)C(C)C=CC=C3COC4C(O)C(C)=CC(C(=O)O1)C34O)O2 (stereo not drawn) [Example 15, 13-[1-(4-Methoxyacetylaminophenyl)cyclobutanecarbonyloxy]-5-hydroxy-milbemycin A4]
- Mortality (%) [2]: 100%

Reference: patent US6653342B2, “13-substituted milbemycin derivatives, their preparation and their use against insects and other pests” (Sankyo Company, Limited, priority 2000, dated 2003)
